Records with an inconclusive call do not appear. Active and inactive are the calls of the source. How the calls were made is not given here. Where only a bound is given, the exact number is not on record here.

From PubChem BioAssay AID2423 (Broad Institute, 2010) come the findings set out here.

The experiment relates to C. albicans CaCi-8 + fluconazole, Alamar Blue growth, 48 h. The experiment in a line: resistant C. albicans growth inhibition with fluconazole, dose response, CaCi-8 strain, Alamar Blue fluorescence (AID 2423). On the technique in general: Resazurin is reduced to fluorescent resorufin, in cell work by metabolically active cells.
Consider `COc1cc(NC(=O)c2ccccc2NS(=O)(=O)c2ccc(Cl)s2)cc(OC)c1`, for which the EC50 is > 16000 nM (inactive).

Consider `COc1cc(/C=C(\C#N)c2nc3ccccc3s2)cc([N+](=O)[O-])c1O`, for which the EC50 is > 15000 nM (inactive).

Consider `O=C(Nc1cc(F)cc(F)c1)c1ccc(NCCCN2CCCCCC2)c([N+](=O)[O-])c1`, for which the EC50 is > 16000 nM (inactive).

Turning to `CCc1ccc(C2c3[nH]c4ccccc4c3CCN2C(=O)c2ccc(=O)n(C)n2)cc1` (stereo unspecified), the EC50 is 339 nM.

Take `COc1cccc(CN2C(=O)C3(C(C#N)=C(N)OC4=C3C(=O)CCC4)c3ccccc32)c1` (stereo unspecified): the concentration for a half-maximal effect (EC50) is 2150 nM.

In the case of `COc1ccccc1N1CCN(Cc2cc(Br)c(O)c3ncccc23)CC1`, the 50% effective concentration (EC50) is 4490 nM.

In the case of `O=C(Nc1cccc(-c2cn3ccccc3n2)c1)c1cccc(Cl)c1`, the EC50 was 715 nM.

Consider `Cc1ccc(C(=O)c2coc3c2C(=O)C(=O)c2ccccc2-3)cc1`, for which the EC50 was 146 nM.

In the case of `CC(C)=CCc1c2c(c(O)c3c(=O)c4c(oc13)-c1cc(O)c(O)cc1OC4C=C(C)C)C=CC(C)(C)O2` (stereo unspecified), the concentration giving a half-maximal response (EC50) was 13000 nM.

Turning to `CCCCc1c(O)nc(SCC(=O)Nc2cccc3ccccc23)n(-c2ccccc2OC)c1=O`, the EC50 was 7770 nM.

As for `S=C(Nc1ccc(Cl)cc1)c1nc2ccccc2[nH]1`, the EC50 is 1640 nM.

As to `CNC(=S)N1N=C(c2ccccc2)CC1c1ccccc1Cl` (stereo unspecified), the EC50 is > 16000 nM (inactive).

For the compound `COc1ccc(-c2c[n+]3c(n2-c2ccccc2)CCCCC3)cc1`, the EC50 was 9580 nM.

On to `O=Nc1c(O)n(Cc2cccc(Cl)c2)c2ccccc12`, for which the EC50 was 1200 nM.

Take `CCCc1nnc(NC(=S)Nc2ccccc2)s1`: the EC50 is 1340 nM.

For the compound `O=C(NC(=S)Nn1cnc2c(cnn2-c2ccccc2)c1=O)c1ccc(Cl)cc1`, the 50% effective concentration (EC50) was 4150 nM.

Consider `CC1CCC(C(=O)c2c(O)c3ccccc3oc2=O)CC1` (stereo unspecified), for which the EC50 is 2900 nM.

Take `CCOC(=O)c1[nH]c2ccc(F)cc2c1NC(=O)c1ccccc1C(=O)O`: the EC50 was > 15000 nM (inactive).

Turning to `Cc1ccc(C)c(N=Nc2ccc(O)c3ncccc23)c1`, the concentration for a half-maximal effect (EC50) is 716 nM.

Turning to `Cc1noc(/C=C/c2ccccn2)c1[N+](=O)[O-]`, the EC50 was 1900 nM.

As to `O=C(/C=C/c1ccccc1)NC(=S)Nc1ccc(N2CCOCC2)c(Cl)c1`, the EC50 is > 16000 nM (inactive).

For the compound `Cc1cc2c(cc(C(=O)OCC(=O)NCc3ccco3)n2C)s1`, the EC50 was 6460 nM.

On to `O=C(NNC(=O)c1ccc2ccccc2c1O)c1ccccc1Cl`, for which the EC50 is 6110 nM.

Turning to `CCCC(=O)NC(c1ccc(Cl)cc1)c1ccc2cccnc2c1O` (stereo unspecified), the EC50 was 543 nM.

With `COc1ccc(-c2n[nH]c(C)c2-c2cnn(-c3ccccc3)c2)c(O)c1`, the EC50 was 9760 nM.

Regarding `S=c1[nH]nc(-c2cccs2)n1/N=C/c1cccs1`, the EC50 was 1080 nM.

For `CNC(=O)Nc1cc(C(F)(F)F)cc(C(F)(F)F)c1`, the EC50 is 742 nM.

With `O=C(NNC(=S)Nc1cccc(C(F)(F)F)c1)c1ccc(Cl)cc1Cl`, the EC50 is 1970 nM.

Take `O=Nc1c(O)n(Cc2ccc(Cl)c(Cl)c2)c2ccccc12`: the 50% effective concentration (EC50) was 5900 nM.

As for `COc1ccc(OC)c(Nc2nc(-c3ccc(O)c(O)c3)cs2)c1`, the concentration giving a half-maximal response (EC50) was 10800 nM.

Consider `OCc1ccnc2c(O)cccc12`, for which the EC50 was > 16000 nM (inactive).

As for `CCCOc1ccc(C(=O)NNC(=S)NC(C)=O)cc1`, the EC50 is 1670 nM.

Take `CC(C)(C)C(=O)NC(=S)NNC(=O)c1sc2ccccc2c1Cl`: the EC50 is 360 nM.

As to `COc1ccc(C(=O)NNC(=S)NC(=O)c2cccc([N+](=O)[O-])c2)cc1`, the EC50 is 1800 nM.

For the compound `CCOc1ccc2nc(NC(=S)N(C)C)sc2c1`, the EC50 was 1220 nM.

Regarding `CCOC(=O)c1c(NC(=S)NCC2CCCO2)sc(C)c1C` (stereo unspecified), the EC50 was < 120 nM.

Take `C=CC[C@@H]1C=C(C)C[C@H](C)C[C@H](OC)[C@H]2O[C@@](O)(C(=O)C(=O)N3CCCC[C@H]3C(=O)O[C@H](/C(C)=C/[C@@H]3CC[C@@H](O)[C@H](OC)C3)[C@H](C)[C@@H](O)CC1=O)[C@H](C)C[C@@H]2OC`: the EC50 was < 120 nM.

For `O=C(O/N=C1/CCSc2ccccc21)c1ccc(F)cc1`, the EC50 was > 15000 nM (inactive).

Regarding `O=C(/C=C/c1cc(Br)ccc1O)c1ccco1`, the EC50 was 458 nM.

Take `CCn1c(Sc2nc(C)nc3scc(-c4cccs4)c23)n[nH]c1=O`: the EC50 was 703 nM.

For the compound `CC(C)C(=O)NC(c1cccs1)c1cc([N+](=O)[O-])c2cccnc2c1O` (stereo unspecified), the EC50 is 778 nM.

Take `O=C(COc1ccc2c(c1)CCC2)N1CCN(c2cccc(C(F)(F)F)c2)CC1`: the EC50 was > 16000 nM (inactive).

For `O=C(NCc1ccccc1)C1c2ccccc2Oc2ccccc21`, the EC50 was 6030 nM.

`O=c1nc(/C=C/c2cc([N+](=O)[O-])ccc2Cl)cc(C(F)(F)F)[nH]1`: the EC50 is 946 nM.

`CC(Oc1cc2oc(=O)c3c(c2cc1Cl)CCCC3)C(=O)NCc1ccncc1` (stereo unspecified): the concentration giving a half-maximal response (EC50) is 6600 nM.

With `Cc1ccc(C)c(S(=O)(=O)N2CCN(Cc3ccc(O)c4ncccc34)CC2)c1`, the EC50 is 2120 nM.

With `CCOc1cc(C=O)cc(N=Nc2cccc([N+](=O)[O-])c2)c1O`, the EC50 was 639 nM.

As for `N#C/C(=C\c1ccc(O)c(O)c1)C(=O)Nc1cccc2ncccc12`, the EC50 was > 15000 nM (inactive).

Consider `O=c1cc(-c2ccccc2)c2ccc(O)cc2o1`, for which the EC50 was 3530 nM.

In the case of `CCOC(=O)c1ccc(-c2ccc(C3Nc4ccccc4C(=O)N3O)o2)cc1` (stereo unspecified), the EC50 is 5630 nM.

Consider `Cc1cccc(C(=O)O/N=C/c2c(N3CCOCC3)n(C)c3ccccc23)c1`, for which the EC50 was 799 nM.

As to `CN(C)c1ccc(NC(=O)C2C3C=CC(C3)C2C(=O)O)cc1` (stereo unspecified), the EC50 is > 16000 nM (inactive).

With `COc1ccccc1/C=C1\SC(=S)N(NS(=O)(=O)c2ccccc2)C1=O`, the EC50 was 1110 nM.

`CN1c2ccccc2N(C)C1(C)c1ccccc1`: the EC50 was > 15000 nM (inactive).

Consider `O=C(/C=C/c1ccc(F)cc1)N1CCN(c2ccccn2)CC1`, for which the EC50 was 800 nM.

In the case of `CCCC(=O)NC(c1ccccc1OC)c1ccc2cccnc2c1O` (stereo unspecified), the EC50 was 1040 nM.

Take `O=C(O)c1ccc(-c2nc(-c3ccc(Cl)cc3)cs2)cc1`: the EC50 is 3420 nM.

On to `COC(=O)c1ccc(COc2ccc(/C=C(\C#N)c3nc4ccccc4[nH]3)cc2OC)o1`, for which the EC50 is 2620 nM.

Consider `COC(=O)[C@@H]1CCCN1Cc1nc(Cc2ccccc2F)no1`, for which the EC50 was > 16000 nM (inactive).

For `COc1cccc(C(=O)NNC(=O)c2ccccc2Br)c1`, the EC50 was > 15000 nM (inactive).

On to `CC(=O)Nc1ccc(N2CC(C)(C)C2=O)cc1`, for which the EC50 was > 15000 nM (inactive).

As for `O=C(CCNC(=O)c1ccc(Br)cc1)Nc1nccs1`, the EC50 was > 15000 nM (inactive).

In the case of `COc1ccc(-n2cc(-c3ccc(C)cc3)[n+]3c2SCC3)cc1`, the EC50 was 2940 nM.

`O=C(CSc1ccc(Cl)cc1)Nc1nnc(-c2ccco2)o1`: the EC50 was 2720 nM.

In the case of `COc1ccc(N(C(=O)Cn2nnc3ccccc32)C(C(=O)NC(C)(C)C)c2ccc(OC)c(O)c2)cc1` (stereo unspecified), the EC50 is 2210 nM.

With `Oc1ccc(/C=N/n2c(COc3ccccc3)n[nH]c2=S)cc1O`, the half-maximal effective concentration (EC50) was 16300 nM.

Take `CCCOc1cccc(-c2cc(C(=O)NNC(=S)NCC)c3ccccc3n2)c1`: the EC50 is 891 nM.

Take `Cc1onc(-c2ccccc2)c1C(=O)N/N=C(\N)COc1ccc(Cl)cc1`: the EC50 was 14200 nM.

Turning to `O=S(=O)(Nc1nc(-c2ccccc2)cs1)c1cc(Cl)ccc1Cl`, the EC50 is 2790 nM.

With `Cc1cc(OC(=O)c2ccco2)c2c3c(c(=O)oc2c1)CCCC3`, the EC50 is 953 nM.

For `CCn1c(SCC(=O)c2ccc(O)c(O)c2)nnc1-c1ccccc1OC`, the EC50 is > 16000 nM (inactive).

Regarding `CCn1cc(C(=O)OCC(=O)Nc2cccc(Cl)c2Cl)c(=O)c2ccc(C)nc21`, the EC50 is > 15000 nM (inactive).

With `COc1ccc(-c2nc(CN3CCN(c4cc(C)nc(C)c4)CC3)c(C)o2)c2ccccc12`, the EC50 was 2490 nM.

`Oc1c(CN2CCc3ccccc3C2)cc(Cl)c2cccnc12`: the 50% effective concentration (EC50) is 849 nM.

`Cc1ccc(NC(=O)c2ccc([N+](=O)[O-])o2)cc1C`: the EC50 was 1130 nM.

As to `CCOC(=O)c1c(-c2ccccc2Cl)cn2ccccc12`, the concentration giving a half-maximal response (EC50) is 2120 nM.

Consider `COc1ccc(C(=O)C(CN2CCCC2)c2ccccc2)cc1` (stereo unspecified), for which the EC50 is > 16000 nM (inactive).

As to `CN=c1scc(-c2cccs2)n1/N=C/c1ccc(O)c(O)c1O`, the EC50 was 14500 nM.

For the compound `COCCn1c(=O)[nH]c(=O)c2cc(C(=O)c3cc(Cl)ccc3O)cnc21`, the EC50 was 1280 nM.

In the case of `CCN1CCN(C(c2cccnc2)c2cc(Cl)c3cccnc3c2O)CC1` (stereo unspecified), the EC50 was 978 nM.

Take `COc1ccc(-c2cc(N)n(S(=O)(=O)c3c(F)c(F)c(F)c(F)c3F)n2)cc1OC`: the EC50 was > 16000 nM (inactive).

Regarding `CN(/C(=N/S(=O)(=O)c1cccs1)c1ccccc1)c1ccc(O)cc1`, the EC50 was > 15000 nM (inactive).

For `CNCc1ccccc1Sc1ccc(O)c(O)c1`, the EC50 was 6840 nM.

In the case of `COc1ccnc(N2CCN(c3ccccc3)CC2)c1C#N`, the EC50 is 859 nM.

On to `O=C(/C=C/c1ccco1)Nc1cccc(-c2nc3ccccc3[nH]2)c1`, for which the EC50 is 1250 nM.

Take `O=C(N/N=C\c1c(O)ccc2ccccc12)c1ccc(S(=O)(=O)N2CCCCC2)cc1`: the concentration giving a half-maximal response (EC50) was 279 nM.

As for `CN1CCN(C(c2ccccn2)c2cc(Cl)c3cccnc3c2O)CC1` (stereo unspecified), the EC50 is 1170 nM.

Regarding `Cc1ccc(C(=O)NC(=S)NNC(=O)CC#N)cc1`, the EC50 is > 15000 nM (inactive).

As for `COc1ccc(C(=O)N2c3ccccc3C=CC2C#N)cc1` (stereo unspecified), the EC50 is 1760 nM.

Regarding `O=C(c1ccco1)N1CCN(c2ncnc3c(-c4ccccc4)nsc23)CC1`, the EC50 was 1260 nM.

Regarding `CCOC(=O)c1ccc(Oc2nc(NC(C)(C)C)nc(N(C)C)n2)cc1`, the EC50 is 13300 nM.

Turning to `Cc1cc(C)n(-c2nc(NCCN(C)C)c3c4c(sc3n2)CCCC4)n1`, the EC50 is 5130 nM.

Take `Cc1cccc(C2c3[nH]c4ccccc4c3CCN2C(=O)c2cc(-c3cccn3C)n[nH]2)n1` (stereo unspecified): the EC50 is 1050 nM.

`NNC(=O)c1cc(-c2cccs2)nc2ccccc12`: the EC50 was > 15000 nM (inactive).

For the compound `COc1cc(OC)cc(-c2nnc(Nc3nc4c(F)cccc4s3)o2)c1`, the EC50 is > 15000 nM (inactive).

Regarding `CCCNC(=O)C12CCC(C)(c3nc4cc(C)c(C)cc4nc31)C2(C)C` (stereo unspecified), the EC50 is > 15000 nM (inactive).

Broadly, the EC50 is the concentration giving half of the maximal effect.
